Source: patent publication US9320722B2, “Regulators of aldehyde dehydrogenase ALDH3A1 and related therapeutic methods” (Indiana University Research and Technology Corporation, priority 2013, dated 2016)
Like-named read-outs stand apart in the source and are kept apart here.

What was measured:
[1] = biological target: T1, ALDH3A1 (Homo sapiens (Human), UniProt P30838); experiment: biochemical; settings: for inhibition at 10 µM: read-out: % activity left after treating with 10 micromolar inhibitor ALDH3A1
T1 sequence (P30838 whole entry): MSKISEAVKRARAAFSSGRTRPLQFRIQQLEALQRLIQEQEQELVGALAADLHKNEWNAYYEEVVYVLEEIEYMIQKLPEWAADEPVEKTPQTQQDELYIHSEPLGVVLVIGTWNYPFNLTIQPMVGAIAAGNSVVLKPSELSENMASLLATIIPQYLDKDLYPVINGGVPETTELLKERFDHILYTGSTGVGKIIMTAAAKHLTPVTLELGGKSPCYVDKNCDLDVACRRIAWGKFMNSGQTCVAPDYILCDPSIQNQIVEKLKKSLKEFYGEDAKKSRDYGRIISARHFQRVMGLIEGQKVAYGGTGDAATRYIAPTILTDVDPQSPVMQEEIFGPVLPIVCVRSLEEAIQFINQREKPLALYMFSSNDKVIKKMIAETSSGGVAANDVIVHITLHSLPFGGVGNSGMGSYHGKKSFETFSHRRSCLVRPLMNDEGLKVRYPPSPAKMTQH
Description: (§2) The enzymatic activity of ALDH1A1, ALDH2 and ALDH3A1 were measured as described previously^[30,34,37,39].
(§3) All reactions were initiated by the addition of the aldehyde substrate. The inhibition curves were fit to the Logistic four parameter IC50 equation using the SigmaPlot (v11, StatSys). We characterized the mode of inhibition using steady-state kinetics through co-variation of inhibitor and substrate concentrations. The steady state kinetic measurements were performed in 100 mM Na2HPO4 buffer, pH 7.5. […] In all cases—including the control reactions lacking inhibitors, the final reaction mixture contained 2% (v/v) DMSO. The reaction was initiated by addition of substrate and the initial rate of product formation was determined on a Beckman DU-640. All data were fit to the non-linear velocity expressions for competitive, non-competitive, mixed-type non-competitive and uncompetitive inhibition^[40]. Appropriateness of the inhibition model was determined through analysis of goodness-of-fit and the residuals of those fits. Lineweaver-Burke plots were created using SigmaPlot (v11, StatSys) to visualize the inhibition patterns. All data represent the average of three independent experiments utilizing triplicate assays at each concentration point.
(§4) ALDH1A1, ALDH2 and ALDH3A1 activities were measured as described earlier^33,44,45. […] Reaction was initiated by the addition of the aldehyde substrate. […] The inhibition curves were fit to the Logistic four parameter IC50 equation using the SigmaPlot (v11, StatSys). Steady state kinetic experiments were performed by co-varying inhibitor and substrate concentrations. The steady state kinetic measurements were performed in 100 mM Na2HPO4 buffer, pH 7.5.

[2] = biological target: ALDH2 (Homo sapiens (Human), UniProt P05091); experiment: ALDH2 dehydrogenase activity / IC50 determination (propionaldehyde substrate); type: biochemical; settings: for IC50: Table 4, hits from ChemDiv screen, NI not defined, read-out: IC50 (micromolar) ALDH2; for inhibitory potential toward ALDH2 activity in vitro (in words): CB29 analogs
Chain of ALDH2 (P05091 18-517): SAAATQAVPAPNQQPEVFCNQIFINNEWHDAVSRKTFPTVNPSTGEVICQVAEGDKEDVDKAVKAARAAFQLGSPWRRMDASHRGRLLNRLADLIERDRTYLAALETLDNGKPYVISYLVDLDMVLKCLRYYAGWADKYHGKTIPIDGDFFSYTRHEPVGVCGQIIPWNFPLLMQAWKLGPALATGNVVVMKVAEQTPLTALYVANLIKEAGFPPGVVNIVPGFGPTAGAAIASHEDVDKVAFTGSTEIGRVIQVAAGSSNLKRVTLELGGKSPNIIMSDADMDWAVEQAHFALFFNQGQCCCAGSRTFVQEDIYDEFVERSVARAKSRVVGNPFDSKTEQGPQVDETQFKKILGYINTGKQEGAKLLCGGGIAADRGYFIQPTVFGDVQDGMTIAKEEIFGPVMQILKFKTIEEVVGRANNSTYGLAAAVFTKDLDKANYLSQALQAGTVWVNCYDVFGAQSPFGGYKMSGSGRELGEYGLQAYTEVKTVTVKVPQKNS
Description: The enzymatic activity of ALDH1A1, ALDH2 and ALDH3A1 were measured as described previously^[30,34,37,39]. The specific activities of the purified proteins were 1.9, 3.8 and 32 μmole/min/mg for ALDH1A1, ALDH2 and ALDH3A1 respectively.
as §3, §4

[3] = biological target: ALDH1A1 (Homo sapiens (Human), UniProt P00352); experiment: ALDH1A1 dehydrogenase activity / IC50 determination (propionaldehyde substrate); type: biochemical; settings: for IC50: Table 4, hits from ChemDiv screen, read-out: IC50 (micromolar) ALDH1A1; for inhibitory potential / activity toward ALDH1A1 in vitro (in words): CB29 analogs; for IC50 (micromolar) ALDH1A1: Tables 1A/1B, propionaldehyde substrate, S.D. in parentheses
Chain of ALDH1A1 (P00352 whole entry): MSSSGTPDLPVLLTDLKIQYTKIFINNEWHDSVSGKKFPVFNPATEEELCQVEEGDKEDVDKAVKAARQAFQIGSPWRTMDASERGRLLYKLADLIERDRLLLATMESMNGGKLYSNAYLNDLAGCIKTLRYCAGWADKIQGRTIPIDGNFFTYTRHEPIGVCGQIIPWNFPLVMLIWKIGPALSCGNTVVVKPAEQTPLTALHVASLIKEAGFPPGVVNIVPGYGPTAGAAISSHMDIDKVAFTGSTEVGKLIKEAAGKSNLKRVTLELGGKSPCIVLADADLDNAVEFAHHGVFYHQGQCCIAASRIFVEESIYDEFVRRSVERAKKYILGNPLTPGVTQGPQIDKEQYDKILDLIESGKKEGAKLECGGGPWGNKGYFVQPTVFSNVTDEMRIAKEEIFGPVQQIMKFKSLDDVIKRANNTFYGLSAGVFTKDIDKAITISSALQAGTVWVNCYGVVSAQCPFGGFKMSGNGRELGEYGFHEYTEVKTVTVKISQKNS
Description: as §2, §3, §4

[4] = biological target: T1, ALDH3A1
Description: as §2, §3, §4

[5] = tested on: A549 cells; experiment: MTT assay for cell proliferation / mafosfamide sensitivity, A549; type: cell-based; settings: FIG. 4A; for sensitivity to mafosfamide on co-treatment (in words), A549: 50 μM inhibitor + mafosfamide; for effect on cell proliferation as single agent (in words), A549: 50 μM inhibitor
[6] = tested on: SF767 cells; experiment: MTT assay for cell proliferation / mafosfamide sensitivity, SF767; type: cell-based; settings: for sensitivity to mafosfamide on co-treatment (in words), SF767: 50 μM inhibitor + […] mafosfamide; for sensitivity to mafosfamide on co-treatment (in words), SF767 / effect on cell proliferation as single agent (in words), SF767: FIG. 4B; for effect on cell proliferation as single agent (in words), SF767: 50 μM inhibitor; for chemosensitivity to mafosfamide (in words), SF767: 10 μM inhibitor + mafosfamide
[7] = Solubility; type: physicochemical; settings: in the presence of […] DMSO
[8] = biological target: T1, ALDH3A1; type: biochemical; settings: wt ALDH3A1
Description: as §3
Reaction was initiated by the addition of the aldehyde substrate. […] The inhibition curves were fit to the Logistic four parameter IC50 equation using the SigmaPlot (v11, StatSys). Steady state kinetic experiments were performed by co-varying inhibitor and substrate concentrations. The steady state kinetic measurements were performed in 100 mM Na2HPO4 buffer, pH 7.5.
The initial rate of product formation was determined on a Beckman DU-640. All data were fit to the non-linear velocity expressions for competitive, non-competitive, mixed-type non-competitive and uncompetitive inhibition^46. Appropriateness of the inhibition model was determined through analysis of goodness-of-fit and the residuals of those fits. Lineweaver-Burke plots were created using SigmaPlot (v11, StatSys) to visualize the inhibition patterns. All data represent the average of three independent experiments utilizing triplicate assays at each concentration point.

[9] = biological target: ALDH3A1 Q122A mutant (Homo sapiens (Human), UniProt P30838, Q123A)
Chain of ALDH3A1 Q122A mutant (P30838 whole entry Q123A): as the sequence (P30838 whole entry) above, with Q123A counted along it
Description: (§1) These two mutant proteins were purified exactly the same way as was ALDH3A1. […] Kinetic experiments were performed exactly the same way as the wild type (WT) enzyme.

[10] = biological target: ALDH3A1 Q122W mutant (Homo sapiens (Human), UniProt P30838, Q123W)
Chain of ALDH3A1 Q122W mutant (P30838 whole entry Q123W): as the sequence (P30838 whole entry) above, with Q123W counted along it
Description: as §1

[11] = read-out: IC50 (micromolar) ALDH3A1, Table 4, hits from ChemDiv screen
[12] = read-out: IC50 (micromolar) ALDH3A1, Tables 1A/1B, benzaldehyde substrate, S.D. for three assays in parentheses
[13] = read-out: IC50 against ALDH3A1, benzaldehyde substrate

Question: Which inhibition at 10 µM [1] does the source give for `Cc1ccc(-c2ccc(/C=C/[N+](=O)O)o2)c(Br)c1` [CB39] here?
Answer: 32%

Question: Which inhibition at 10 µM [1] does the source give for `COc1ccc(/C=C/[N+](=O)O)cc1I` [CB40] here?
Answer: 30%

Question: With `CN(C)c1ccc(/C=C/[N+](=O)O)cc1Br` [CB41] as the compound, how does the inhibition at 10 µM [1] read?
Answer: 45%

Question: Which inhibition at 10 µM [1] does the source give for `C#CCOc1c(Cl)cc(/C=C/[N+](=O)O)cc1OC` [CB42] here?
Answer: 46%

Question: For `O=C1Nc2ccccc2C12Oc1ccccc1C1CC(c3ccccc3)=NN12` (centres unmarked) [CD3], which IC50 [2] is on record?
Answer: 41.8 µM

Question: What about the IC50 [3] of the same compound?
Answer: 6.5 µM

Question: What about the IC50 [4, 11] of the same compound?
Answer: 38.5 µM

Question: With `CCCSc1nnc2c(n1)OC(C(=O)c1ccc(OC)cc1)Nc1ccccc1-2` (centres unmarked) [CD4] as the compound, how does the IC50 [2] read?
Answer: 1.4 µM

Question: What about the IC50 [3] of the same compound?
Answer: 21.2 µM

Question: What about the IC50 [4, 11] of the same compound?
Answer: 2.5 µM

Question: Which results are given for `CCSc1nnc2c(n1)OC(C(=O)c1ccc(OC)cc1)Nc1ccccc1-2` (centres unmarked) [CD5]?
Answer: IC50 [2]: 1.2 µM; IC50 [3]: 8.2 µM; IC50 [4, 11]: 1.5 µM

Question: Which IC50 [3] does the source give for `CCOC(=O)CN1C(=O)C(O)(CC(=O)c2ccccn2)c2ccccc21` (centres unmarked) [CD7] here?
Answer: 0.7 µM

Question: What about the IC50 [4, 11] of the same compound?
Answer: 25.5 µM

Question: Which IC50 [2] does the source give for `CCOC(=O)CN1C(=O)C(O)(CC(=O)c2ccncc2)c2ccccc21` (centres unmarked) [CD8] here?
Answer: 11.1 µM

Question: What about the IC50 [3] of the same compound?
Answer: 0.8 µM

Question: What about the IC50 [4, 11] of the same compound?
Answer: 6.3 µM

Question: With `Cc1ccc(S(=O)(=O)NC(O)C(=O)c2cccs2)cc1` (centres unmarked) [CD10] as the compound, how does the IC50 [2] read?
Answer: 2.2 µM

Question: And the IC50 [3]?
Answer: 4 µM

Question: And the IC50 [4, 11]?
Answer: 3.4 µM

Question: With `O=C(NC(O)C(=O)c1cccs1)c1cccnc1` (centres unmarked) [CD11] as the compound, how does the IC50 [2] read?
Answer: 6.5 µM

Question: And the IC50 [3]?
Answer: 5.9 µM

Question: What about the IC50 [4, 11] of the same compound?
Answer: 10.2 µM

Question: What does the source list for `O=C(NC(O)C(=O)c1cccs1)c1ccncc1` (centres unmarked) [CD12]?
Answer: IC50 [2]: 5.3 µM; IC50 [3]: 4.2 µM; IC50 [4, 11]: 5.6 µM

Question: Which IC50 [2] does the source give for `CCn1c(-c2ccc(OC)c(F)c2)cs/c1=N/c1ccccc1` [CD13] here?
Answer: 7.3 µM

Question: What about the IC50 [3] of the same compound?
Answer: 6.3 µM

Question: And the IC50 [4, 11]?
Answer: 60 µM

Question: What does the source list for `CCCC1C(C#N)=C(SCC(=O)c2ccc(Br)cc2)NC(C)=C1C(C)=O` (centres unmarked) [CD14]?
Answer: IC50 [2]: 13.7 µM; IC50 [3]: 10.4 µM; IC50 [4, 11]: 71.5 µM

Question: Which IC50 [3] does the source give for `Cc1cccc(C(=O)CN2CCN(S(=O)(=O)c3cc(Cl)ccc3Cl)CC2)c1` [CD20] here?
Answer: 33 µM

Question: What about the IC50 [4, 11] of the same compound?
Answer: 41 µM

Question: With `CNS(=O)(=O)c1ccc(Nc2ccc(F)cc2)c([N+](=O)[O-])c1` [Compound 2] as the compound, how does the “inhibitory potential toward ALDH2 activity in vitro (in words)” value [2] read?
Answer: no inhibitory potential

Question: What about the “inhibitory potential / activity toward ALDH1A1 in vitro (in words)” value [3] of the same compound?
Answer: no inhibitory potential

Question: And the “sensitivity to mafosfamide on co-treatment (in words), A549” value (“sensitivity to mafosfamide … A549” for short) [5]?
Answer: increased sensitivity to mafosfamide

Question: And the “effect on cell proliferation as single agent (in words), A549” value (from here on “effect on cell proliferation … A549”) [5]?
Answer: little effect on cell proliferation

Question: What about the “sensitivity to mafosfamide on co-treatment (in words), SF767” value [6] of the same compound?
Answer: increased sensitivity to mafosfamide

Question: And the “effect on cell proliferation as single agent (in words), SF767” value (“effect on cell proliferation … SF767” below) [6]?
Answer: little effect on cell proliferation

Question: And the “concentration of homogenous solution easily formed” value (“concentration” below) [7]?
Answer: ≥ 100 µM

Question: And the IC50 [4, 12]?
Answer: 26 µM

Question: What about the IC50 [4, 13] of the same compound?
Answer: 26 µM

Question: Which “IC50 (micromolar) ALDH1A1” value [3] does the source give for `Cc1ccc(C)c(Nc2ccc(S(C)(=O)=O)cc2[N+](=O)[O-])c1` [Compound 7] here?
Answer: WA (WA represents (30-50) % activation shown by 100 μM compound to respective enzymes)

Question: Which “inhibitory potential toward ALDH2 activity in vitro (in words)” value [2] does the source give for `Cc1ccc(Nc2ccc(S(C)(=O)=O)cc2[N+](=O)[O-])cc1F` [Compound 8] here?
Answer: no inhibitory potential

Question: What about the “inhibitory potential / activity toward ALDH1A1 in vitro (in words)” value [3] of the same compound?
Answer: no inhibitory potential

Question: And the “IC50 (micromolar) ALDH1A1” value [3]?
Answer: WA (WA represents (30-50) % activation shown by 100 μM compound to respective enzymes)

Question: And the “sensitivity to mafosfamide … A549” value [5]?
Answer: increased sensitivity to mafosfamide

Question: And the “effect on cell proliferation … A549” value [5]?
Answer: little effect on cell proliferation

Question: What about the “sensitivity to mafosfamide on co-treatment (in words), SF767” value [6] of the same compound?
Answer: increased sensitivity to mafosfamide

Question: What about the “effect on cell proliferation … SF767” value [6] of the same compound?
Answer: little effect on cell proliferation

Question: What about the “concentration” value [7] of the same compound?
Answer: ≥ 100 µM

Question: What about the IC50 [4, 12] of the same compound?
Answer: 10.8 µM

Question: And the IC50 [1]?
Answer: 10 µM

Question: Which results are given for `CNS(=O)(=O)c1ccc(Nc2ccc(OC)cc2)c([N+](=O)[O-])c1` [Compound 10]?
Answer: inhibitory potential toward ALDH2 activity in vitro (in words) [2]: no inhibitory potential; inhibitory potential / activity toward ALDH1A1 in vitro (in words) [3]: no inhibitory potential; effect on cell proliferation as single agent (in words), A549 [5]: little effect on cell proliferation; effect on cell proliferation as single agent (in words), SF767 [6]: little effect on cell proliferation; concentration of homogenous solution easily formed [7]: ≥ 100 µM; IC50 [4, 12]: 31.7 µM; IC50 [4, 13]: 31 µM

Question: Which “inhibitory potential toward ALDH2 activity in vitro (in words)” value [2] does the source give for `CNS(=O)(=O)c1ccc(Nc2ccc(OC(F)F)cc2)c([N+](=O)[O-])c1` [Compound 11] here?
Answer: no inhibitory potential

Question: What about the “inhibitory potential / activity toward ALDH1A1 in vitro (in words)” value [3] of the same compound?
Answer: no inhibitory potential

Question: What about the “sensitivity to mafosfamide … A549” value [5] of the same compound?
Answer: increased sensitivity to mafosfamide

Question: And the “effect on cell proliferation … A549” value [5]?
Answer: little effect on cell proliferation

Question: And the “sensitivity to mafosfamide on co-treatment (in words), SF767” value [6]?
Answer: increased sensitivity to mafosfamide

Question: And the “effect on cell proliferation … SF767” value [6]?
Answer: little effect on cell proliferation

Question: What about the “concentration” value [7] of the same compound?
Answer: ≥ 100 µM

Question: And the IC50 [4, 12]?
Answer: 24.7 µM

Question: And the IC50 [4, 13]?
Answer: 24 µM

Question: For `Cc1nc2ccccc2n1S(=O)(=O)c1ccc(Cl)cc1` [Compound A20], which “chemosensitivity to mafosfamide (in words), SF767” value (shortened to “chemosensitivity to mafosfamide”) [6] is on record?
Answer: significantly increased chemosensitivity

Question: For `O=S(=O)(c1ccc(Cl)cc1)n1cnc2ccccc21` [Compound A21], which “chemosensitivity to mafosfamide” value [6] is on record?
Answer: significantly increased chemosensitivity

Question: For `CC(=O)c1nc2ccccc2n1S(=O)(=O)c1ccc(Cl)cc1` [Compound B37], which “chemosensitivity to mafosfamide” value [6] is on record?
Answer: significantly increased chemosensitivity

Question: With `CCC=O` [Propionaldehyde] as the compound, how does the “Propionaldehyde Kcat/Km” value [8] read?
Answer: 0.05 ± 0.003 min⁻¹ µM⁻¹

Question: What about the “Propionaldehyde Kcat/Km” value ([8]; listed as propionaldehyde) of the same compound?
Answer: 0.05 min⁻¹ µM⁻¹

Question: What about the Km ([8]; read-out: Propionaldehyde Km) of the same compound?
Answer: 20.5 ± 0.272 mM

Question: What about the “Propionaldehyde Kcat/Km” value [9] of the same compound?
Answer: 0.049 ± 0.003 min⁻¹ µM⁻¹

Question: And the “Propionaldehyde Kcat/Km” value ([9]; listed as propionaldehyde)?
Answer: 0.049 min⁻¹ µM⁻¹

Question: What about the Km ([9]; read-out: Propionaldehyde Km) of the same compound?
Answer: 23.9 ± 1.99 mM

Question: What about the “Propionaldehyde Kcat/Km” value [10] of the same compound?
Answer: 0.039 ± 0.005 min⁻¹ µM⁻¹

Question: What about the “Propionaldehyde Kcat/Km” value ([10]; listed as propionaldehyde) of the same compound?
Answer: 0.039 min⁻¹ µM⁻¹

Question: What about the Km ([10]; read-out: Propionaldehyde Km) of the same compound?
Answer: 5.36 ± 0.59 mM
